Data on three molecules can be found in US20160067265A1, “Abiraterone Acetate Formulation” (ICEUTICA INC., priority 2013, published 2016).

Data set [1] can be described thus: Accelerated stability, 4 hrs at 80° C., total impurities. Particulars: after 4 hours at 80° C.
Protocol: As part of the analysis of impurity growth, the impact on impurity level of various excipients useful for tablet preparation was examined by blending the DPI with various excipients and heating for 4 hours at 80° C.
Data set [2] can be described thus: Particle size analysis (Malvern Mastersizer 3000), Example 4. It counts as physicochemical. Particulars: volume statistics, in 0.1% PVP. On the procedure: This cycle was continued until the total sonication time reached one minute. […] The sample was then allowed to stir for 5 minutes prior to taking measurements. Data from the final measurements are presented in Table 1 and depicted graphically in FIG. 3. For comparison, the particle size distribution of unmilled abiraterone acetate (raw drug substance) was also determined. […] The sample was then allowed to stir for 5 minutes prior to taking measurements. The data from these measurements are presented in Table 1 and depicted graphically in FIG. 3. […] No fine particle abiraterone acetate was measured in the unmilled drug sample. [table]

Data set [3] in a line: Particle size distribution by light scattering (Malvern Mastersizer 2000), Example 1. It counts as physicochemical. The settings on record: volume statistics. The source says: Abiraterone acetate drug substance was obtained from Hangzhao Dayangchem Co., Ltd.; Hangzhao City, P.R. China.
The nature of data set [4]: Comparative capsule dissolution, 10 mmol phosphate buffer pH 6 with 0.1% SDS, Example 2. It counts as physicochemical. Particulars: pH 6 phosphate buffer, 37° C. On the procedure:
Also, 250 mg of unmilled abiraterone acetate was hand filled into similar capsules. Dissolution profiles were measured in triplicate using a Varian VK7025 dissolution apparatus fitted with (6) 1000 mL vessels, with detection performed in a Varian UV-Vis Spectrophotometer at 270 nm. Each vessel contained 900 mL dissolution media consisting of 10 mmol phosphate buffer at pH 6 with 0.1% SDS added. Experiments were conducted at 37° C. The hard gelatin capsules were fitted inside spiral sinkers before commencing the dissolution experiments.

In the case of `CC(=O)O[C@H]1CC[C@@]2(C)C(=CC[C@@H]3[C@@H]2CC[C@]2(C)C(c4cccnc4)=CC[C@@H]32)C1` [API prior to size reduction, Abiraterone acetate], the degradation entry in data set [1] is listed as “essentially no degradation”.
With `CC(=O)O[C@H]1CC[C@@]2(C)C(=CC[C@@H]3[C@@H]2CC[C@]2(C)C(c4cccnc4)=CC[C@@H]32)C1` [Unmilled, Abiraterone acetate], in data set [2], the “D4,3” value is recorded as 28.1 μm, the D10 was determined as 8.18 μm, the D50 was determined as 21.8 μm and the D90 is reported as 47.3 μm.
Regarding `CC(=O)O[C@H]1CC[C@@]2(C)C(=CC[C@@H]3[C@@H]2CC[C@]2(C)C(c4cccnc4)=CC[C@@H]32)C1` [unmilled abiraterone acetate, Abiraterone acetate], in data set [3], the D10 amounted to 16 μm, the D50 is 37 μm, the D90 was 70 μm and the average particle size entry is recorded as “approximately 40 μm”. For the same molecule, in data set [4], the “% dissolved after one hour” value is on record as “approximately 10%”.
